Measurements published in PubChem BioAssay (NCI).
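Each compound was tested at five concentrations against cells in 96-well plates for 48 hours. TGI marks complete inhibition of growth.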

Experiments:
Assay in all cases: NCI anticancer screen, dose series, 48 h
MDA-MB-435 = test system: MDA-MB-435
SF-539 CNS = test system: SF-539 CNS
MDA-N = test system: MDA-N
SF-268 CNS = test system: SF-268 CNS
OVCAR-3 ovarian = test system: OVCAR-3 ovarian
OVCAR-5 ovarian = test system: OVCAR-5 ovarian
A549 NSCLC = test system: A549 NSCLC
OVCAR-8 ovarian = test system: OVCAR-8 ovarian
CAKI-1 renal = test system: CAKI-1 renal
HT29 colon = test system: HT29 colon
U251 CNS = test system: U251 CNS
UO-31 renal = test system: UO-31 renal
RXF 393 renal = test system: RXF 393 renal
NCI/ADR-RES ovarian = test system: NCI/ADR-RES ovarian
OVCAR-4 ovarian = test system: OVCAR-4 ovarian
IGROV1 ovarian = test system: IGROV1 ovarian
NCI-H460 lung = test system: NCI-H460 lung
RPMI-8226 leukemia = test system: RPMI-8226 leukemia
MALME-3M melanoma = test system: MALME-3M melanoma
SK-MEL-28 melanoma = test system: SK-MEL-28 melanoma
HOP-92 NSCLC = test system: HOP-92 NSCLC
HL-60(TB) leukemia = test system: HL-60(TB) leukemia
PC-3 prostate = test system: PC-3 prostate
COLO 205 colon = test system: COLO 205 colon
NCI-H522 lung = test system: NCI-H522 lung
M14 melanoma = test system: M14 melanoma
DU-145 prostate = test system: DU-145 prostate
MDA-MB-231 breast = test system: MDA-MB-231 breast
HCT-15 colon = test system: HCT-15 colon
CCRF-CEM leukemia = test system: CCRF-CEM leukemia
EKVX NSCLC = test system: EKVX NSCLC
MOLT-4 leukemia = test system: MOLT-4 leukemia
A498 renal = test system: A498 renal
UACC-257 melanoma = test system: UACC-257 melanoma
LOX IMVI melanoma = test system: LOX IMVI melanoma
BT-549 breast = test system: BT-549 breast
SR leukemia = test system: SR leukemia
MCF7 breast = test system: MCF7 breast
UACC-62 melanoma = test system: UACC-62 melanoma
SN12C renal = test system: SN12C renal
SW-620 colon = test system: SW-620 colon
T-47D breast = test system: T-47D breast
SF-295 CNS = test system: SF-295 CNS
SK-OV-3 ovarian = test system: SK-OV-3 ovarian
786-0 renal = test system: 786-0 renal
KM12 colon = test system: KM12 colon
SNB-75 CNS = test system: SNB-75 CNS
NCI-H23 lung = test system: NCI-H23 lung
K-562 leukemia = test system: K-562 leukemia
NCI-H226 lung = test system: NCI-H226 lung
HS 578T breast = test system: HS 578T breast
HCT-116 colon = test system: HCT-116 colon
SNB-19 CNS = test system: SNB-19 CNS
SK-MEL-2 melanoma = test system: SK-MEL-2 melanoma
HOP-62 NSCLC = test system: HOP-62 NSCLC
ACHN renal = test system: ACHN renal
TK-10 renal = test system: TK-10 renal
SK-MEL-5 melanoma = test system: SK-MEL-5 melanoma

Measured: TGI

Cn1c(=S)c2[nH]c(SCCN3C(=O)c4ccccc4C3=O)nc2n(C)c1=O
> 100 µM: MDA-MB-435 | SF-539 CNS | MDA-N | SF-268 CNS | OVCAR-3 ovarian | OVCAR-5 ovarian | A549 NSCLC | OVCAR-8 ovarian | CAKI-1 renal | HT29 colon | U251 CNS | UO-31 renal | RXF 393 renal | NCI/ADR-RES ovarian | OVCAR-4 ovarian | IGROV1 ovarian | NCI-H460 lung | RPMI-8226 leukemia | MALME-3M melanoma | SK-MEL-28 melanoma | HOP-92 NSCLC | HL-60(TB) leukemia | PC-3 prostate | COLO 205 colon | NCI-H522 lung | M14 melanoma | DU-145 prostate | MDA-MB-231 breast | HCT-15 colon | CCRF-CEM leukemia | EKVX NSCLC | MOLT-4 leukemia | A498 renal | UACC-257 melanoma | LOX IMVI melanoma | BT-549 breast | SR leukemia | MCF7 breast | UACC-62 melanoma | SN12C renal | SW-620 colon | T-47D breast | SF-295 CNS | SK-OV-3 ovarian | 786-0 renal | KM12 colon | SNB-75 CNS | NCI-H23 lung | K-562 leukemia | NCI-H226 lung | HS 578T breast | HCT-116 colon | SNB-19 CNS | SK-MEL-2 melanoma | HOP-62 NSCLC | ACHN renal | TK-10 renal | SK-MEL-5 melanoma

COC(=O)[C@@H]1CC(C(CN)c2cn(C(=O)OC(C)(C)C)c3ccccc23)C(=O)N1C(=O)OC(C)(C)C (some centres undefined)
32.8 µM: COLO 205 colon
50.7 µM: MDA-MB-435
37.3 µM: A498 renal
54.1 µM: MALME-3M melanoma
46.2 µM: RXF 393 renal
28.3 µM: SF-539 CNS
97.8 µM: NCI-H226 lung
32.9 µM: SN12C renal
32.2 µM: UACC-257 melanoma
28.8 µM: UACC-62 melanoma
> 100 µM: SF-268 CNS | A549 NSCLC | U251 CNS | UO-31 renal | M14 melanoma | DU-145 prostate | HCT-15 colon | BT-549 breast | SW-620 colon | T-47D breast | 786-0 renal | KM12 colon | NCI-H23 lung | HS 578T breast | HCT-116 colon | SNB-19 CNS | HOP-62 NSCLC | ACHN renal | TK-10 renal
30.5 µM: LOX IMVI melanoma
59.8 µM: OVCAR-3 ovarian
59.2 µM: HL-60(TB) leukemia
31.6 µM: SK-MEL-5 melanoma
80.2 µM: PC-3 prostate
45.2 µM: SF-295 CNS
24.1 µM: RPMI-8226 leukemia
58.1 µM: IGROV1 ovarian
56 µM: NCI-H460 lung
66.6 µM: OVCAR-4 ovarian
37.6 µM: MOLT-4 leukemia
95.8 µM: NCI-H522 lung
58.6 µM: MDA-MB-231 breast
84.2 µM: OVCAR-5 ovarian
48.4 µM: K-562 leukemia
53.8 µM: EKVX NSCLC
33.8 µM: SNB-75 CNS
76.3 µM: CAKI-1 renal
69.6 µM: MDA-N
58.5 µM: MCF7 breast
31.4 µM: SK-MEL-28 melanoma
34.8 µM: CCRF-CEM leukemia
55.3 µM: SK-MEL-2 melanoma
55.8 µM: OVCAR-8 ovarian | NCI/ADR-RES ovarian
43.3 µM: SR leukemia
55.2 µM: HT29 colon
